pIC50: −log10 of the molar value.
Key:
[1] = test system: T1, human pancreatic chymotrypsin; test: Specificity assay, chymotrypsin; format: biochemical; conditions: 2 h enzyme-inhibitor pre-incubation; read-out: Chymotrypsin activity in the specificity assays (IC50)
T1 construct: "human pancreatic chymotrypsin"
Description: The specificities of compounds of the present disclosure were determined against a variety of serine proteases: human neutrophil elastase (HNE), porcine pancreatic elastase (PPE) and human pancreatic chymotrypsin and one cysteine protease: human liver cathepsin B. In all cases a 96-well plate format protocol using calorimetric p-nitroaniline (pNA) substrate specific for each enzyme was used as described previously (PCT Patent Application No. WO 00/09543) with some modifications to the serine protease assays. All enzymes were purchased from Sigma while the substrates were from Bachem.
Each assay included a 2 h enzyme-inhibitor pre-incubation at room temperature followed by addition of substrate and hydrolysis to 30% conversion as measured on a Spectramax Pro microplate reader. Compound concentrations varied from 100 to 0.4 μM depending on their potency. […]
The percentage of inhibition was calculated using the formula: [1−((UVinh−UVblank)/(UVctl−UVblank))]×100 […]

[2] = target: T2, HCV NS3/4A protease complex, J4L6S strain (Hepatitis C virus genotype 1b, UniProt O92972, C1454S/C1711G); test: FRET peptide assay to monitor HCV NS3/4A proteolytic activity (J4L6S strain); format: biochemical, HCV genotype 1b; conditions: read-out: IC50 against NS3/4A J4L6S strain
T2 construct: DNA encoding the recombinant HCV NS3/4A protease complex (amino acids 1027 to 1711) for these strains; inferred from pET21b vector and Ni-NTA purification; made in house; host or cells: Escherichia coli BL21 (DE3), pET21b
Source text: HCV NS3 protease complexes, derived from the BMS strain, H77 strain or J4L6S strain, were generated, as described below. These purified recombinant proteins were generated for use in a homogeneous assay (see below) to provide an indication of how effective compounds of the present disclosure would be in inhibiting HCV NS3 proteolytic activity.
The H77 and J4L6S strains were used for production of recombinant NS3/4A protease complexes. DNA encoding the recombinant HCV NS3/4A protease complex (amino acids 1027 to 1711) for these strains were manipulated as described by P. Gallinari et al. (see Gallinari P, Paolini C, Brennan D, Nardi C, Steinkuhler C, De Francesco R. Biochemistry. 38(17):5620-32, (1999)). Briefly, a three-lysine solubilizing tail was added at the 3′-end of the NS4A coding region. The cysteine in the P1 position of the NS4A-NS4B cleavage site (amino acid 1711) was changed to a glycine to avoid the proteolytic cleavage of the lysine tag. Furthermore, a cysteine to serine mutation was introduced by PCR at amino acid position 1454 to prevent the autolytic cleavage in the NS3 helicase domain. […]

T2 sequence (O92972 1027-1711 C1454S/C1711G, one chain of several): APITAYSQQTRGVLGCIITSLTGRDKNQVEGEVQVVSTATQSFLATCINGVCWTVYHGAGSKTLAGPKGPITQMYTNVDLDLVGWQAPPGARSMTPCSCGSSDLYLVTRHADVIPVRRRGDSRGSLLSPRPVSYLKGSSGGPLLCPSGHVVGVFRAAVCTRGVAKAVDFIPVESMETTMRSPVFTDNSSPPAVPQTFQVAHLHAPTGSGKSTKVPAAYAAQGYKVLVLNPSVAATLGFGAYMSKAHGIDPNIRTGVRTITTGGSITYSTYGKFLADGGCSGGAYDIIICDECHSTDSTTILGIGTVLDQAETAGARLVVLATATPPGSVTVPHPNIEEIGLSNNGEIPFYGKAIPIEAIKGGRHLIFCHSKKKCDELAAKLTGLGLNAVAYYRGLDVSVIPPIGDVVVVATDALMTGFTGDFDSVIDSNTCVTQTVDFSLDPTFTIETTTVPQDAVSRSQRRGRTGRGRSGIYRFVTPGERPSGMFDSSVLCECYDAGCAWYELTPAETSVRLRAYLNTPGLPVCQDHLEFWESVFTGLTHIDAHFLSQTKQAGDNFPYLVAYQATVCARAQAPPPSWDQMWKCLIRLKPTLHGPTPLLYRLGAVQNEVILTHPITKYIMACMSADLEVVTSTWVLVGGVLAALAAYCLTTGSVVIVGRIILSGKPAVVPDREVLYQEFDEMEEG

C=C[C@@H]1C[C@]1(NC(=O)[C@@H]1C[C@@](O)(c2ccc(-c3ccccc3)cc2)CN1C(=O)[C@@H](NC(=O)OC(C)(C)C)C(C)(C)C)C(=O)NS(=O)(=O)C1CC1 [Compound 3]
pIC50 [1]: < 4.00 | pIC50 [2]: 9.05
